According to patent US20250195660A1, “INACTIVATING BACTERIA WITH ELECTRIC PULSES AND ANTIBIOTICS” (Purdue Research Foundation, priority 2018, published 2025):

Assays:
[1] = tested on: Esherichia coli (gram negative bacterium number 25922); assay: Inactivation of E. coli by 300 ns electric pulses combined with antibiotic (CFU plating); assay type: cell-based, Escherichia coli
Protocol: Equipment. Used was a capacitor based Blumlein pulse generator with a spark gap switch to produce trapezoidal EPs of 300 ns duration at the peak with rise and fall times close to 50 ns. Multiple pulses were delivered at a frequency of 1 Hz.
The samples were treated in a standard electroporation cuvette (Dot Scientific) whose resistance must match the pulse generator's impedance to prevent pulse reflection. […] Used were 2 mm cuvettes to ensure consistency between tests, and the applied voltage was measured across the cuvette using a LeCroy PPE 20 kV high voltage probe with a 1000:1 attenuation feeding into a TeleDyne LeCroy Waverunner 6 Zi Oscilloscope capable of measuring signals up to 4 GHz. Assuming a purely parallel plate geometry with minimal fringing gives an electric field E=V/d, where V is the peak voltage of the applied pulse and d is the gap distance.
Sample Preparation. These experiments assessed Stapphylococcus aureus (gram positive bacterium number 25923) from ATCC and Esherichia coli (gram negative bacterium number 25922) inoculated in luria broth (LB Broth Lennox, powder microbial growth medium. SIGMA-ALDRICH) by taking 8 mL of broth in a 50 mL sterile conical tube and incubating in a shaker for 20 h at 37° C. The sample was then diluted with fresh Luria broth until attaining an optical density of 0.25 for 100 μL on a photospectrometer (Molecular Devices) for a wavelength of 562 nm as measured in a 96-well plate. The optical density, which varies with growth or tube volume, was determined experimentally and set between 1×10^8 and 1.5×10^8 colony forming units (CFUs)/mL for the samples to be pulsed. These samples were then plated at dilutions between 10-6 and 100 (no dilution) depending on the effectiveness of the pulse treatments.
Electric Pulse Treatment Protocol. […] Although no consensus exists on a universal scaling law for applied EP “dose,” we fixed the energy density
[formula] • where N is the number of pulses and τ is the pulse duration. Fixing U for E=40, 30, and 20 kV/cm gave N=250, 445, and 1000 pulses, respectively. Cultures were plated as described below.
Cuvettes were filled with 365 μL of sample (sufficient to just cover the electrodes) and then 250 μL of molecular biology grade mineral oil was placed on top.
Added were 0.2, 2, and 20 μg/mL of each drug to the initial bacterial dilutions prior to pulsing. Samples were immediately placed on ice to minimize cell division and reduce variability. These aliquots were also used to plate individual unpulsed controls for each drug concentration.
Plating. Plating was done on standard disposable tissue culture Petri dishes from VWR (15 cm diameter, 10 mm height) and covered with 10 mL of agar in luria broth (Agar, microbiology tested powder, SIGMA-ALDRICH), which was prepared by adding 20 g of LB lennox (SIGMA-ALDRICH) and 15 g/L of agar to water and then autoclaved.
Plated were samples at dilutions of 10^−6 and 10^−3 for low and high electric field treatments, respectively, and at 10^−6 and 10^−5 for controls All samples containing 100 μL of pulsed or diluted cultures were plated on LB agar plates and counted after overnight incubation at 37° C.
Pulsing with drugs: bacterial samples of both gram-positive S. aureus and gram-negative E. coli strains were pulsed in a solution with 0.2, 2, and 20 μg/mL of tobramycin and compared to an un-pulsed drug-exposed control. Pulsing and plating were performed to ensure that the drug exposure time of the bacteria was approximately fifteen minutes.

[2] = tested on: Stapphylococcus aureus (gram positive bacterium number 25923); assay: Inactivation of S. aureus by 300 ns electric pulses combined with antibiotic (CFU plating); assay type: cell-based, Staphylococcus aureus; settings: 30 kV/cm treatment + 20 μg/ml dose, in 10 min
[3] = tested on: Klebsiella pneumoniae (ATCC BAA-2146 NDM-I positive); assay: Inactivation of K. pneumoniae by 300 ns electric pulses and/or antibiotics (CFU plating); assay type: cell-based
Source text: Except for rifampicin, the five other antibiotics in these examples primarily target gram-positive bacteria and are largely ineffective or not used against gram-negative bacteria in a clinical setting.
A Blumlein pulsed generator consisting of two lines comprised of twelve 2000 pF capacitors connected by inductors produced 300 ns EPs with rise-times of 30 ns and fall-times of 35 ns at a repetition frequency of 1 Hz (12). The EPs were applied to a standard 2 mm gap electroporation cuvette (Dot Scientific R) filled with a solution containing the microorganisms. Used was a Luria broth of 0.5% salinity (5 grams of NaCl/Liter) for the solution to electrically match the resistance of the sample with the impedance of the pulse generator (11Ω) to prevent signal reflection. The voltage measurements were taken using a LeCroy PPE 20 kV high voltage probe with a 1000:1 attenuation recorded by a TeleDyne LeCroy® Waverunner 6 Zi Oscilloscope with a bandwidth of 4 GHZ.
The gram-negative strains included a carbapenem-resistant Escherichia coli (ATCC® BA-2452TM, New Delhi metallo-beta-lactamase NDM-1 positive.), Klebsiella pneumoniae (ATCC® BAA-2146TM NDM-I positive), and a gentamicin, streptomycin and sulfonamide resistant Pseudomonas aeruginosa (BEI Resources NR-31040). Assessed was the gram-positive strain of methicillin resistant Staphylococcus aureus (USA300-0114 strain), which is also resistant to erythromycin and tetracycline. Samples were cultured in Luria broth (LB Broth Lennox, powder microbial growth medium, SIGMA-ALDRICH®) by taking 25 mL of broth in a 50 mL sterile conical tube and incubating in a shaker for 16 h at 37° C. Samples were diluted 50% by adding 25 mL media to the incubated sample as we plated controls for each experiment and condition.
Samples were treated in 2 mm gap cuvettes containing 365 μL of sample between the electrodes, with bio-grade mineral oil added on top of the electrode plates to prevent arcing.
To establish a common baseline for comparing different NSEP parameters, we fixed the energy density U delivered to the cuvettes according to Formula (1) (above). For 300 ns EPs, 500 EPs at 20 kV/cm and 222 EPs at 30 kV/cm delivered the same energy to the sample.
Tissue culture Petri dishes from VWR R (15 cm diameter, 10 mm height) were utilized for plating. Each plate was covered with 15 mL of Luria broth (Agar, microbiology tested powder, SIGMA-ALDRICH®), which was prepared by adding 20 g of LB Lennox (SIGMA-ALDRICH) and 15 g/L of agar to water prior to being autoclaved. The salinity of the agar was the same as the LB (0.5% NaCl) to minimize additional environmental stressors on the bacteria.
Removed was 20 μL from each cuvette and added to 180 μL of PBS in a 96-well dish in triplicate. Each well was then diluted by a ratio of 10:1 five additional times by taking 20 μL of the diluted sample into subsequent wells using multi-channel pipettes (using fresh tips for each dilution). Plated were the six dilutions of each sample two times each by adding 4 μL from each well onto the Petri dish using a multi-channel pipette, which allowed the plating of all three replicates on the same plate to achieve n=6. These plates were then cultured overnight in an incubator at 37° C., and counted the next day.

## CO[C@H]1/C=C/O[C@@]2(C)Oc3c(C)c(O)c4c(O)c(c(/C=N/N5CCN(C)CC5)c(O)c4c3C2=O)NC(=O)/C(C)=C\C=C\[C@H](C)[C@H](O)[C@@H](C)[C@@H](O)[C@@H](C)[C@H](OC(C)=O)[C@@H]1C [rifampicin]
[1]; 20 μg/mL + 445 pulses of 30 kV/cm, consistent with complete sterilization
  log reduction of E. coli: > 9 log
[1]; 20 μg/mL, EPs vs no EPs
  synergy (additional kill off) compared to just the drug, E. coli: 4 log
[1]; EPs + 2 and 20 μg/mL
  additional log-reduction of E. coli compared to pulsing alone: 1.5 log
[2]
  additional log-reduction of S. aureus: 1.5 log
[3]; 30 kV/cm NSEPs + 2 μg/mL
  additional inactivation compared to NSEPs alone, K. pneumoniae: 1 log
  log reduction of K. pneumoniae: 5 log
[3]; 30 kV/cm NSEPs + 20 μg/mL
  additional inactivation compared to NSEPs alone, K. pneumoniae: 1 log
